The first assay addresses T1, recombinant human cIAP-1 (Homo sapiens, UniProt Q13490).
T1 construct: purchased R&D Systems 818-IA
The experiment in a line: Fluorescence polarization competition binding assay, cIAP-1. The note with it: c-IAP-1, 3 h. As to the method: Homogeneous, Fluorescence Polarization, Competition Binding Assay Protocol for Affinity Assessment of Compound Binding to XIAP, cIAP-1 and ML-IAPβ BIR3 Domains
1× stocks of recombinant human XIAP; BIR3 domain (895-XB), recombinant human cIAP-1 (818-IA) or recombinant human ML-IAPβ (818-IA) from R&D Systems and Fluorescence Polarization (FP) assay tracer (Atto-647 tagged IAP inhibitor probe compound) were prepared in assay buffer consisting of 25 mM Tris-HCL, pH 7.5 (Sigma), 10 mM […] (Sigma), 1 mM DTT (Fluka) and 0.005% TritonX-100 (Pierce). While IAP protein and tracer equilibrated at ambient temp in the dark (30-60 min), 100× stocks of test compound were prepared in 50% DMSO:H2O, serially diluted and spotted (0.5 µL/well) in duplicate wells of a 384-well, flat bottom, polypropylene, black assay plate (Greiner #781209). […] Competition binding between test compounds and assay tracer was initiated by the addition of 50 µL/well of pre-equilibrated IAP protein and assay tracer. Displacement of the assay tracer was measured in a Synergy plate reader from BioTek (Winooski, Vt.) at λex620/λem680 through a 660 nm half-sized dicroich mirror and S/P polarizing filters every 30 min for 3 hr. (See Huang, X., Journal of Biomolecular Screening 8, 2003). The resulting compound dose response data were fit to a one-site binding Ki model in GraphPad Prism from GraphPad Software (San Diego, Calif.).
T1 sequence (Q13490 whole entry): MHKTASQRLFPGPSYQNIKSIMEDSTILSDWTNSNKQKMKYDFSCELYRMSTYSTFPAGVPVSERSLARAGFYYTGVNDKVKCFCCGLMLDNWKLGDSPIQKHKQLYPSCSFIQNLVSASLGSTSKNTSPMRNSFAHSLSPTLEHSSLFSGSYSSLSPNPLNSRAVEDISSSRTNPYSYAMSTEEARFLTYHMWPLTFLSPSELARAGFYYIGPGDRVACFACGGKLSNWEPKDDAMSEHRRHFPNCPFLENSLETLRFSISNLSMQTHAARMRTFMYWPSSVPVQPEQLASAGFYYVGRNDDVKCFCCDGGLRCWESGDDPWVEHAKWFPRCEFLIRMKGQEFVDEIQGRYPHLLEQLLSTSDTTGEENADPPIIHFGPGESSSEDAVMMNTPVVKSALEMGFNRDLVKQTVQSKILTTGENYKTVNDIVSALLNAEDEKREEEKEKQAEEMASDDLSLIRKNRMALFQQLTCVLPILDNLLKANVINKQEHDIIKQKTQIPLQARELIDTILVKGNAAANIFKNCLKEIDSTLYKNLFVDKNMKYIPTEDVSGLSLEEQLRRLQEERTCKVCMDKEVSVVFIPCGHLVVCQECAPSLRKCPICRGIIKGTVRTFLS
T2 sequence (P48736 whole entry): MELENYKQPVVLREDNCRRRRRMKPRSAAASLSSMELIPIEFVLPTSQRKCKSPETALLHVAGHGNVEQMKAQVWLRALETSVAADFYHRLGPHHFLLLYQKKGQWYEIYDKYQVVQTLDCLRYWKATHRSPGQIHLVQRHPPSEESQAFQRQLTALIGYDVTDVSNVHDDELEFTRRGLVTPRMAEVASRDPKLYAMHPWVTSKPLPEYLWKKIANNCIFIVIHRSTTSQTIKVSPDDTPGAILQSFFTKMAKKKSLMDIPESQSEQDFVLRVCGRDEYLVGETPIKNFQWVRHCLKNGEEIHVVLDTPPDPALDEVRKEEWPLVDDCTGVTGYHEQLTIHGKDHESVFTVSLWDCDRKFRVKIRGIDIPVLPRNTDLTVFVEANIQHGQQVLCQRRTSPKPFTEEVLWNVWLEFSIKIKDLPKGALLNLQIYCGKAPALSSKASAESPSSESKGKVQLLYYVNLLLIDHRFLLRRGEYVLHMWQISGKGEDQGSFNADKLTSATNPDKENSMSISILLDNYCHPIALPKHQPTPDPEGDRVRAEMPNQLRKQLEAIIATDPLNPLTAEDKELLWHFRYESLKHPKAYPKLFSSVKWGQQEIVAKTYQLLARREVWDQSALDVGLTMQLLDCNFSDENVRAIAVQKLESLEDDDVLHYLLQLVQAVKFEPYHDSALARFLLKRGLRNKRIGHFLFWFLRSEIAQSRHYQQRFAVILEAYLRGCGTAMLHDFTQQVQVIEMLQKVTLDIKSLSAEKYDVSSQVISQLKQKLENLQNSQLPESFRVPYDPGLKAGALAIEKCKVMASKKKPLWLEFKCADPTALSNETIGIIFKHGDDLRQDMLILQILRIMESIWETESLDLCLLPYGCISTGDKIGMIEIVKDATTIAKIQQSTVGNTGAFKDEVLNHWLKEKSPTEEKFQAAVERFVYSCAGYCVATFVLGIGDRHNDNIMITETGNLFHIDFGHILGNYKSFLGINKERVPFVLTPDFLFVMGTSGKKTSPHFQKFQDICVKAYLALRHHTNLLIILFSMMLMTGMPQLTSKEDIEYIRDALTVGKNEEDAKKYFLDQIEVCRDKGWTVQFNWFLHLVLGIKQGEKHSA
As usually defined, the Ki is the dissociation constant of the complex between target and ligand, obtained from inhibition or displacement. Turning to `CC(=O)C(C(C)=O)c1cccc(CNC(=O)[C@@H]2CC[C@@H]3CCCC[C@H](NC(=O)[C@H](C)N(C)C(=O)OC(C)(C)C)C(=O)N32)c1` [VII-7, tert-butyl(S)-1-((3S,6S,10aS)-3-(3-(2,4-dioxopentan-3-yl)benzylcarbamoyl)-5-oxodecahydropyrrolo[1,2-a]azocin-6-ylamino)-1-oxopropan-2-yl(methyl)carbamate], the inhibition constant Ki was above 10000 nM.

With `CN[C@@H](C)C(=O)N[C@H]1CCCC[C@H]2CC[C@@H](C(=O)NCc3cccc(NC(=O)C=C(C)C)c3)N2C1=O` [VII-12], the inhibition constant (Ki) is 10 to 100 nM.

Take `CN[C@@H](C)C(=O)N[C@H]1CCCC[C@H]2CC[C@@H](C(=O)NCc3cccc(C(=O)NC[C@@H]4CCC(=O)O4)c3)N2C1=O` [VII-42]: the Ki is 100 to 1000 nM.

For the compound `CN[C@@H](C)C(=O)N[C@H]1CCCC[C@H]2CC[C@@H](C(=O)NCc3cccc(C(=O)OC4C(=O)OCC4(C)C)c3)N2C1=O` (stereo partly shown) [VII-14], the Ki lay in the range of 1000 to 10000 nM.

For `CN[C@@H](C)C(=O)N[C@H]1CCCC[C@H]2CC[C@@H](C(=O)NCc3cccc(C(=O)N[C@@H]4CCOC4=O)c3)N2C1=O` [VII-27], the inhibition constant (Ki) was 100 to 1000 nM.

For `CN[C@@H](C)C(=O)N[C@H]1CCCC[C@H]2CC[C@@H](C(=O)NCc3cccc(OC4CCOC4=O)c3)N2C1=O` (stereo partly shown) [VII-17], the inhibition constant Ki was 100 to 1000 nM.

Turning to `CN[C@@H](C)C(=O)N[C@H]1CCCC[C@H]2CC[C@@H](C(=O)NCc3cccc(C(=O)N4CCC5C[C@H]4C(=O)O5)c3)N2C1=O` [VII-47], the Ki was in the range of 1000 to 10000 nM.

With `CN[C@@H](C)C(=O)N[C@H]1CCCC[C@H]2CC[C@@H](C(=O)NCc3cccc(C(C(C)=O)C(C)=O)c3)N2C1=O` [VII-8], the Ki fell in the range of 100 to 1000 nM.

As for `CN[C@@H](C)C(=O)N[C@H]1CCCC[C@H]2CC[C@@H](C(=O)NCc3cccc(C(=O)N[C@@H]4COC(=O)C4)c3)N2C1=O` [VII-22], the Ki lay in the range of 100 to 1000 nM.

Consider `CN[C@@H](C)C(=O)N[C@H]1CCCC[C@H]2CC[C@@H](C(=O)NCc3cccc(NC(=O)C4CCOC4=O)c3)N2C1=O` (stereo partly shown) [VII-44], for which the Ki was 100 to 1000 nM.

For the compound `C=C(C)C(=O)Nc1cccc(CNC(=O)[C@@H]2CC[C@@H]3CCCC[C@H](NC(=O)[C@H](C)NC)C(=O)N32)c1` [VII-11], the Ki was 100 to 1000 nM.

In the case of `CN[C@@H](C)C(=O)N[C@H]1CCCC[C@H]2CC[C@@H](C(=O)NCc3cccc(NC(=O)[C@@H]4CCC(=O)O4)c3)N2C1=O` [VII-3], the Ki lay within 100 to 1000 nM.

For `CN[C@@H](C)C(=O)N[C@H]1CCCC[C@H]2CC[C@@H](C(=O)NCc3cccc(NC(=O)C4(C(C)=O)CC4)c3)N2C1=O` [VII-34], the Ki lay within 100 to 1000 nM.

Turning to `CN[C@@H](C)C(=O)N[C@H]1CCCC[C@H]2CC[C@@H](C(=O)NCc3cccc(NC(=O)C4COC(=O)C4)c3)N2C1=O` (stereo partly shown) [VII-45], the Ki fell in the range of 1000 to 10000 nM.

Turning to `CN[C@@H](C)C(=O)N[C@H]1CCCC[C@H]2CC[C@@H](C(=O)NCc3cccc(NC(=O)[C@@H]4CCC(=O)N4)c3)N2C1=O` [VII-38], the Ki is 1000 to 10000 nM.

Turning to `CN[C@@H](C)C(=O)N[C@H]1CCCC[C@H]2CC[C@@H](C(=O)NCc3cccc(NC(=O)[C@H]4CCC(=O)N4)c3)N2C1=O` [VII-39], the inhibition constant Ki lay in the range of 100 to 1000 nM.

Turning to `CN[C@@H](C)C(=O)N[C@H]1CCCC[C@H]2CC[C@@H](C(=O)NCc3cccc(NC(=O)CC(C)=O)c3)N2C1=O` [VII-6], the inhibition constant (Ki) was in the range of 10 to 100 nM.

Turning to `CN[C@@H](C)C(=O)N[C@H]1CCCC[C@H]2CC[C@@H](C(=O)NCc3cccc(CNC(=O)[C@H]4CCC(=O)O4)c3)N2C1=O` [VII-33], the Ki was 1000 to 10000 nM.

On to `CN[C@@H](C)C(=O)N[C@H]1CCCC[C@H]2CC[C@@H](C(=O)NCc3cccc(CNC(=O)[C@@H]4CCC(=O)O4)c3)N2C1=O` [VII-32], for which the inhibition constant Ki lay within 100 to 1000 nM.

As to `CN[C@@H](C)C(=O)N[C@H]1CCCC[C@H]2CC[C@@H](C(=O)NCc3cccc(NC(=O)C45CC[C@](C)(C(=O)O4)C5(C)C)c3)N2C1=O` [VII-26], the inhibition constant Ki lay in the range of 100 to 1000 nM.

With `CN[C@@H](C)C(=O)N[C@H]1CCCC[C@H]2CC[C@@H](C(=O)NCc3cccc(NC(=O)CC(=O)C(F)(F)F)c3)N2C1=O` [VII-9], the Ki lay within 100 to 1000 nM.

For `CN[C@@H](C)C(=O)N[C@H]1CCCC[C@H]2CC[C@@H](C(=O)NCc3cccc(C(=O)N4C[C@@H]5C[C@H]4C(=O)O5)c3)N2C1=O` [VII-20, (3S,6S,10aS)-6-((S)-2-(methylamino)propanamido)-5-oxo-N-(3-((1S,4S)-3-oxo-2-oxa-5-azabicyclo[2.2.1]heptane-5-carbonyl)benzyl)decahydropyrrolo[1,2-a]azocine-3-carboxamide], the Ki lay within 100 to 1000 nM.

As for `CN[C@@H](C)C(=O)N[C@H]1CCCC[C@H]2CC[C@@H](C(=O)NCc3cccc(C(=O)N4CCC5CC4C(=O)O5)c3)N2C1=O` (stereo partly shown) [VII-48], the Ki lay in the range of 100 to 1000 nM.

As for `CN[C@@H](C)C(=O)N[C@H]1CCCC[C@H]2CC[C@@H](C(=O)NCc3cccc(NC(=O)/C=C/CN(C)C)c3)N2C1=O` [VII-10], the inhibition constant Ki lay in the range of 100 to 1000 nM.

Turning to `CN[C@@H](C)C(=O)N[C@H]1CCCC[C@H]2CC[C@@H](C(=O)NCc3cccc(NC(=O)[C@@H]4CC(=O)N4)c3)N2C1=O` [VII-4], the Ki lay in the range of 100 to 1000 nM.

In the case of `CN[C@@H](C)C(=O)N[C@H]1CCCC[C@H]2CC[C@@H](C(=O)NCc3cccc(Nc4c(OC(C)C)c(=O)c4=O)c3)N2C1=O` [VII-5], the inhibition constant Ki fell in the range of 100 to 1000 nM.

In the case of `CN[C@@H](C)C(=O)N[C@H]1CCCC[C@H]2CC[C@@H](C(=O)NCc3cccc(NC(=O)C4CCCC(=O)O4)c3)N2C1=O` (stereo partly shown) [VII-46], the Ki is 100 to 1000 nM.

For `CN[C@@H](C)C(=O)N[C@H]1CCCC[C@H]2CC[C@@H](C(=O)NCc3cccc(C(=O)NC[C@H]4CCC(=O)O4)c3)N2C1=O` [VII-41], the Ki lay in the range of 100 to 1000 nM.

Consider `CN[C@@H](C)C(=O)N[C@H]1CCCC[C@H]2CC[C@@H](C(=O)NCc3cccc(C(=O)OC4CCOC4=O)c3)N2C1=O` (stereo partly shown) [VII-15], for which the Ki lay within 100 to 1000 nM.

For `CN[C@@H](C)C(=O)N[C@H]1CCCC[C@H]2CC[C@@H](C(=O)NCc3cccc(NC(=O)C45CC[C@@](C)(C(=O)O4)C5(C)C)c3)N2C1=O` [VII-24], the Ki was in the range of 100 to 1000 nM.

Turning to `CN[C@@H](C)C(=O)N[C@H]1CCCC[C@H]2CC[C@@H](C(=O)NCc3cccc(C(=O)N[C@H]4CCOC4=O)c3)N2C1=O` [VII-13, (3S,6S,10aS)-6-((S)-2-(methylamino)propanamido)-5-oxo-N-(3-((S)-2-oxotetrahydrofuran-3-ylcarbamoyl)benzyl)decahydropyrrolo[1,2-a]azocine-3-carboxamide], the inhibitory constant (Ki) lay in the range of 100 to 1000 nM.

On to `CN[C@@H](C)C(=O)N[C@H]1CCCC[C@H]2CC[C@@H](C(=O)NCc3cccc(C(=O)C=C(C)C)c3)N2C1=O` [VII-19], for which the Ki lay within 10 to 100 nM.

Turning to `C=CC(=O)NCc1cccc(CNC(=O)[C@@H]2CC[C@@H]3CCCC[C@H](NC(=O)[C@H](C)NC)C(=O)N32)c1` [VII-18], the inhibitory constant (Ki) was in the range of 100 to 1000 nM.

`CN[C@@H](C)C(=O)N[C@H]1CCCC[C@H]2CC[C@@H](C(=O)NCc3cccc(C(=O)N4C[C@H]5C[C@@H]4C(=O)O5)c3)N2C1=O` [VII-25]: the Ki lay within 100 to 1000 nM.

In the case of `CN[C@@H](C)C(=O)N[C@H]1CCCC[C@H]2CC[C@@H](C(=O)NCc3cccc(C(=O)N4CCOC(=O)C4)c3)N2C1=O` [VII-31], the inhibition constant Ki lay within 100 to 1000 nM.

Another assay addresses T2, p120γ (PI3Kγ) (Homo sapiens, UniProt P48736).
T2 construct: purchased BPS Bioscience 40625
The experiment in a line: HTRF assay, p120γ. In kind it is biochemical. To be noted: PI3Kγ; read-out: PI3Kγ HTRF IC50 Inhibition Designation. The source says: The protocol below describes an end-point, competition-binding HTRF assay used to measure inherent potency of test compounds against active p110α/p85α, p110β/p85α, p120γ enzymes. The mechanics of the assay platform are best described by the vendor (Millipore, Billerica, Mass.) on their website at the following URL: http://www.millipore.com/coa/tech1/74jt4z.
Briefly, Stop solution (Stop A, #33-007 and Stop B, #33-009; 3:1 ratio) and Detection Mix (DMC, #33-015 with DMA, #33-011 and DMB, #33-013; 18:1:1 ratio) were prepared as recommended by the manufacturer ˜2 hrs prior to use. Additionally, 1× reaction buffer (4× buffer stock #33-003), a 1.4× stock of enzyme from BPS Bioscience (San Diego, Ca) or Millipore (Billerica, Mass.) with di-C8-PIP2 lipid substrate (#33-005), and a 4×ATP solution (#A7699) Sigma/Aldrich (St. Louis, Mo.) were prepared in 1×reaction buffer. 15 μL of enzyme and lipid substrate mix were pre-incubated in a Corning (#3573) 384-well, black, non-treated microtiter plate (Corning, N.Y.) for 30 min at 25° C. with a 0.5 μL volume of 50% DMSO and serially diluted compounds prepared in 50%-75% DMSO. Lipid kinase reactions were started with the addition of 5 μL of ATP solution, mixed for 15 sec on a rotary plate shaker and incubated for 15-30 minutes at 25° C. Next, reactions were stopped with a 5 μL addition of Stop solution followed by a 5 μL volume of Detection Mix. Stopped reactions were equilibrated for 1 and 18 hrs at room temperature and then read in a Synergy4 plate reader from BioTek (Winooski, Vt.) at λex330-80/λem620-35 and λem665-7.5. At the conclusion of each assay, the HTRF ratio from fluorescence emission values for each well was calculated and % Inhibition determined from averaged controls wells. % Inhibition values for each compound re then plotted against inhibitor concentration to estimate IC50 from log [Inhibitor] vs Response, Variable Slope model in GraphPad Prism from GraphPad Software (San Diego, Calif.).
Reagents Used in Optimized Protocol: • [p120γ]=1-4 nM, [ATP]=50 μM, [di-C8-PIP2]=10 μM • (40625; BPS Bioscience)
Background: Time-resolved FRET reads energy transfer from a long-lived donor to a nearby acceptor.
The IC50 is the concentration needed to halve the response being measured. Regarding `C=CC(=O)N(C)Cc1cc2nc(-c3cccc(O)c3)nc(N3CCOCC3)c2s1` [XXII-5, N-((2-(3-hydroxyphenyl)-4-morpholinothieno[3,2-d]pyrimidin-6-yl)methyl)-N-methylacrylamide], the IC50 was 100 to 1000 nM.

The same assay, now with this note: p120γ; read-out: Reference Inhibitor IC50.
Take `Cc1ccc([N+](=O)[O-])cc1S(=O)(=O)N(C)/N=C/c1cnc2ccc(Br)cn12` [PIK75, reference compound]: the 50% inhibitory concentration (IC50) is 55 nM.
